Article PMC4727778, “Synthesis and Antifungal Evaluation of Novel N-Alkyl Tetra- and Perhydroquinoline Derivatives” (Scientia Pharmaceutica, 2014)
≈ marks a conversion by molar mass, not a printed value. Counter-ions that a name gives are not always drawn.

Legend:
[1] = system: Candida glabrata (DSMZ-Nr.11226); assay: Agar diffusion assay; assay type: cell-based; conditions: Nakaseomyces glabratus, C. glabrata, GI = growth inhibition, read-out: diameter of zones of total inhibition
Protocol: (§1) The resulting compounds and known compounds, 1-undecylpiperidine (7) and 1-decylpiperazine (8a), as well as 1-methyl-4-undecylpiperazine (8b) (prepared in the same way), were tested in an agar diffusion assay against Gram-positive (Staphylococcus equorum (DSMZ-Nr. 20675), Streptococcus entericus (DSZM-Nr. 14446)) and Gram-negative bacteria (Escherichia coli (DSMZ-Nr. 426), Pseudomonas marginalis (DSMZ-Nr. 7527)), as well as the fungi Yarrowia lipolytica (DSMZ-Nr. 1345), Candida glabrata (DSMZ-Nr.11226), Aspergillus niger (DSMZ-Nr. 1988), and Hyphopichia burtonii (DSMZ-Nr. 70663) (Table 1).

[2] = system: Staphylococcus equorum (DSMZ-Nr. 20675); assay: Agar diffusion assay; assay type: cell-based; conditions: read-out: diameter of zones of total inhibition
Protocol: as §1

[3] = system: Hyphopichia burtonii (DSMZ-Nr. 70663); assay: Agar diffusion assay; assay type: cell-based; conditions: H. burtonii, GI = growth inhibition, read-out: diameter of zones of total inhibition
Protocol: as §1

[4] = system: Aspergillus niger (DSMZ-Nr. 1988); assay: Agar diffusion assay; assay type: cell-based; conditions: A. niger, GI = growth inhibition, read-out: diameter of zones of total inhibition
Protocol: as §1

[5] = system: Escherichia coli (DSMZ-Nr. 426); assay: Agar diffusion assay; assay type: cell-based; conditions: E. coli, GI = growth inhibition, read-out: diameter of zones of total inhibition
Protocol: as §1

[6] = system: Pseudomonas marginalis (DSMZ-Nr. 7527); assay: Agar diffusion assay; assay type: cell-based; conditions: P. marginalis, GI = growth inhibition, read-out: diameter of zones of total inhibition
Protocol: as §1

[7] = system: Yarrowia lipolytica (DSMZ-Nr. 1345); assay: Agar diffusion assay; assay type: cell-based; conditions: Y. lipolytica, GI = growth inhibition, read-out: diameter of zones of total inhibition
Protocol: as §1

[8] = system: Streptococcus entericus (DSZM-Nr. 14446); assay: Agar diffusion assay; assay type: cell-based; conditions: S. entericus, GI = growth inhibition, read-out: diameter of zones of total inhibition
Protocol: as §1

[9] = system: human leukemia cell line (HL 60); assay: MTT test (cytotoxicity); assay type: cell-based; conditions: HL 60 cell line, arithmetic average of three determinations
Protocol: The cytotoxicity of the compounds 3a–d, 5a–d, and 8b was determined in an MTT test against a human leukemia cell line (HL 60).

Saccharomyces cerevisiae = assay: Microdilution assay (MIC); assay type: cell-based; conditions: hydrochlorides used, arithmetic average of two determinations, read-out: Minimal inhibitory concentration (MIC)
Protocol: (§2) For comparison, the N-undecylperhydroisoquinoline (C) was also tested here. For solubility reasons, the hydrochlorides were used in this assay (Table 2).

Yarrowia lipolytica = assay: Microdilution assay (MIC); assay type: cell-based; conditions: hydrochlorides used, arithmetic average of two determinations, read-out: Minimal inhibitory concentration (MIC)
Protocol: as §2

Candida glabrata = assay: Microdilution assay (MIC); assay type: cell-based; conditions: Nakaseomyces glabratus, hydrochlorides used, arithmetic average of two determinations, read-out: Minimal inhibitory concentration (MIC)
Protocol: as §2

Row | SMILES | zone of inhibition at 50 µg/disc [1] [mm] | zone of inhibition at 50 µg/disc [2] [mm] | zone of inhibition at 50 µg/disc [3] [mm] | zone of inhibition at 50 µg/disc [4] [mm] | zone of inhibition at 50 µg/disc [5] [mm] | zone of inhibition at 50 µg/disc [6] [mm] | zone of inhibition at 50 µg/disc [7] [mm] | zone of inhibition at 50 µg/disc [8] [mm] | IC50 [9] [µM] | MIC (Saccharomyces cerevisiae) [mg/L] | MIC (Yarrowia lipolytica) [mg/L] | MIC (Candida glabrata) [mg/L] | melting point [°C]
1 | CCCCCCCCCCCN1CCCc2ccccc21 [Compound 2c, 1-Undecyl-1,2,3,4-tetrahydroquinoline] | 0 | 0 | 0 | 0 | 0 | 0 | 0 | 0 | – | – | – | – | –
2 | CCCCCCCCCCN1CCCc2ccccc21 [Compound 2b, 1-Decyl-1,2,3,4-tetrahydroquinoline] | 0 | 0 | 0 | 0 | 0 | 0 | 0 | 0 | – | – | – | – | –
3 | CCCCCCCCCCCCN1CCC[C@@H]2CCCC[C@H]21 (racemic) [Compound 5d, (±)-trans-1-Dodecyldecahydroquinoline hydrochloride] | – | – | – | – | – | – | – | – | 6 | 2.5 | 2.5 | 5 | –
4 | CCCCCCCCCCN1CCC[C@@H]2CCCC[C@H]21 (racemic) [Compound 4b, (±)-trans-1-Decyldecahydroquinoline] | 16 | 13 | 20 | 12 | 0 | 15 | 19 | 22 | – | – | – | – | –
5 | CCCCCCCCCCCN1CCC[C@@H]2CCCC[C@H]21 (racemic) [Compound 4c, (±)-trans-1-Undecyldecahydroquinoline] | 13 | 12 | 13 | 14 | 0 | 11 | 13 | 20 | – | – | – | – | –
6 | CCCCCCCCCN1CCC[C@@H]2CCCC[C@H]21 (racemic) [Compound 4a, (±)-trans-1-Nonyldecahydroquinoline] | 14 | 10 | 12 | 7 | 0 | 13 | 15 | 20 | – | – | – | – | –
7 | CCCCCCCCCCCCN1CCCc2ccccc21.Cl [Compound 3d, 1-Dodecyl-1,2,3,4-tetrahydroquinoline hydrochloride] | – | – | – | – | – | – | – | – | 15 | – | – | – | 49
8 | CCCCCCCCCCN1CCNCC1 [Compound 8a, 1-decylpiperazine, reference compound] | 8 | 13 | 25 | 20 | 7 | 8 | 22 | 17 | – | 5 (≈ 22.1 µM) | 10 (≈ 44.2 µM) | 45 (≈ 199 µM) | –
9 | CCCCCCCCCCN1CCC[C@@H]2CCCC[C@H]21 (racemic) [Compound 5b, (±)-trans-1-Decyldecahydroquinoline hydrochloride] | – | – | – | – | – | – | – | – | 7 | 1 | 2.5 | 37.5 | –
10 | CCCCCCCCCN1CCCc2ccccc21.Cl [Compound 3a, 1-Nonyl-1,2,3,4-tetrahydroquinoline hydrochloride] | – | – | – | – | – | – | – | – | 19 | – | – | – | 65
11 | CCCCCCCCCCCN1CCC[C@@H]2CCCC[C@H]21 (racemic) (as salt: hydrochloride) [Compound 5c, (±)-trans-1-Undecyldecahydroquinoline hydrochloride] | – | – | – | – | – | – | – | – | – | – | – | – | 119
12 | CCCCCCCCCCCCN1CCC[C@@H]2CCCC[C@H]21 (racemic) [Compound 4d, (±)-trans-1-Dodecyldecahydroquinoline] | 9 | 9 | 11 | – | 0 | 14 | 9 | 12 | – | – | – | – | –
13 | CCCCCCCCCCCN1CCCc2ccccc21.Cl [Compound 3c, 1-Undecyl-1,2,3,4-tetrahydroquinoline hydrochloride] | – | – | – | – | – | – | – | – | 16 | – | – | – | 52
14 | CCCCCCCCCCCN1CCN(C)CC1 [Compound 8b, 1-methyl-4-undecylpiperazine, reference compound] | 11 | 18 | 14 | 12 | 10 | 15 | 25 | 15 | 46 | 50 (≈ 196 µM) | 10 (≈ 39.3 µM) | 25 (≈ 98.2 µM) | –
15 | CCCCCCCCCCCCN1CCC[C@@H]2CCCC[C@H]21 (racemic) (as salt: hydrochloride) [Compound 5d, (±)-trans-1-Dodecyldecahydroquinoline hydrochloride] | – | – | – | – | – | – | – | – | – | – | – | – | 113
16 | CCCCCCCCCCCCN1CCCc2ccccc21 [Compound 2d, 1-Dodecyl-1,2,3,4-tetrahydroquinoline] | 0 | 0 | 0 | 0 | 0 | 0 | 0 | 0 | – | – | – | – | –
17 | CCCCCCCCCCCC(=O)N1CCCc2ccccc21 [Compound 6, N-Dodecanoyl-1,2,3,4-tetrahydroquinoline] | 0 | 0 | 0 | 0 | 0 | 0 | 0 | 0 | – | – | – | – | 37
18 | CCCCCCCCCCN1CCCc2ccccc21.Cl [Compound 3b, 1-Decyl-1,2,3,4-tetrahydroquinoline hydrochloride] | – | – | – | – | – | – | – | – | 60 | – | – | – | 61
19 | CN(C/C=C/C#CC(C)(C)C)Cc1cccc2ccccc12 [terbinafine, reference compound] | 0 | – | 15 | 26 | – | – | 12 | – | – | – | – | – | –
20 | CCCCCCCCCN1CCCc2ccccc21 [Compound 2a, 1-Nonyl-1,2,3,4-tetrahydroquinoline] | 0 | 0 | 0 | 0 | 0 | 0 | 0 | 0 | – | – | – | – | –
21 | CN(C)[C@@H]1C(O)=C(C(N)=O)C(=O)[C@@]2(O)C(O)=C3C(=O)c4c(O)cccc4[C@@](C)(O)[C@H]3C[C@@H]12 [tetracycline, reference compound] | 0 | 30 | 0 | 0 | 26 | 12 | 0 | 10 | – | – | – | – | –
22 | CCCCCCCCCCN1CCC[C@@H]2CCCC[C@H]21 (racemic) (as salt: hydrochloride) [Compound 5b, (±)-trans-1-Decyldecahydroquinoline hydrochloride] | – | – | – | – | – | – | – | – | – | – | – | – | 128
23 | CCCCCCCCCN1CCC[C@@H]2CCCC[C@H]21 (racemic) (as salt: hydrochloride) [Compound 5a, (±)-trans-1-Nonyldecahydroquinoline hydrochloride] | – | – | – | – | – | – | – | – | – | – | – | – | 130
24 | CCCCCCCCCN1CCC[C@@H]2CCCC[C@H]21 (racemic) [Compound 5a, (±)-trans-1-Nonyldecahydroquinoline hydrochloride] | – | – | – | – | – | – | – | – | 22 | 2.5 | 7.5 | 50 | –
